According to ChEMBL document CHEMBL5055661, “Cell-Based Drug Discovery: Identification and Optimization of Small Molecules that Reduce c-MYC Protein Levels in Cells” (J Med Chem, 2021):
Activity calls are given as the source filed them. The rule behind the calls is not given here.

Key:
[1] = Clearance in CD1 mouse at 0.5 mg/kg, iv by LC-MS/MS analysis; format: ADME, organism-based; conditions: in vivo
[2] = Volume of distribution at steady state in Han Wistar rat at 1 mg/kg, iv by LC-MS/MS analysis; format: ADME, organism-based; conditions: in vivo, read-out: Vdss
[3] = Oral bioavailability in CD1 mouse at 5.1 mg/kg by LC-MS/MS analysis; format: ADME, organism-based; conditions: in vivo
[4] = Clearance in CD1 mouse at 0.49 mg/kg, iv by LC-MS/MS analysis; format: ADME, organism-based; conditions: in vivo
DOHH-2 [5] = assay: Anticancer activity against human DOHH-2 cells assessed as tumor growth inhibition at 30 mg/kg, po qd measured after 28 days; format: functional; conditions: DOHH-2, 672 h, time 28 day, read-out: TGI
[6] = Volume of distribution at steady state in CD1 mouse at 0.5 mg/kg, iv by LC-MS/MS analysis; format: ADME, organism-based; conditions: in vivo, read-out: Vdss
[7] = Reduction in cMyc expression in human COLO 320HSR cells incubated for 24 hrs by HTRF assay; format: functional, cell-based
DOHH-2 [8] = assay: Decrease in c-MYC protein level in human DOHH-2 cells incubated for 6 hrs by Western blot analysis; format: functional, cell-based
DOHH-2 [9] = assay: Anticancer activity against human DOHH-2 cells assessed as tumor growth inhibition at 45 mg/kg, po qd measured after 21 days; format: functional; conditions: DOHH-2, 504 h, time 21 day, read-out: TGI
[10] = Oral bioavailability in Han Wistar rat at 2.1 mg/kg by LC-MS/MS analysis; format: ADME, organism-based; conditions: in vivo
Burkitts lymphoma cell = assay: Growth inhibition of MYC-translocated human Burkitts lymphoma cells measured after 6 days by CellTiterGlo-assay; format: functional; conditions: time 6.0 day
[11] = Half life in Han Wistar rat at 1 mg/kg, iv by LC-MS/MS analysis; format: ADME, organism-based; conditions: in vivo
[12] = Half life in CD1 mouse at 0.49 mg/kg, iv by LC-MS/MS analysis; format: ADME, organism-based; conditions: in vivo
Mus musculus = assay: Toxicity in mouse assessed as decrease in body weight at 30 mg/kg, po qd measured after 28 days; format: organism-based; conditions: in vivo, 672 h, time 28 day
[13] = AUC (0 to inf) in CD1 mouse at 5.1 mg/kg, po by LC-MS/MS analysis; format: ADME, organism-based; set-up: time infinity, dose 5.1 mg/kg, route po; conditions: in vivo
[14] = AUC (0 to inf) in Han Wistar rat at 2.1 mg/kg, po by LC-MS/MS analysis; format: ADME, organism-based; set-up: time infinity, dose 2.1 mg/kg, route po; conditions: in vivo
[15] = Volume of distribution at steady state in CD1 mouse at 0.49 mg/kg, iv by LC-MS/MS analysis; format: ADME, organism-based; conditions: in vivo, read-out: Vdss
[16] = Half life in CD1 mouse at 0.5 mg/kg, iv by LC-MS/MS analysis; format: ADME, organism-based; conditions: in vivo
DOHH-2 [17] = assay: Reduction in MYC mRNA level in po dosed mouse xenografted with human DOHH-2 cells by qRT-PCR analysis; format: functional, organism-based; conditions: dose 15-100 mg/kg
[18] = Plasma protein binding in Han Wistar rat at 2.1 mg/kg, po by LC-MS/MS analysis; format: ADME, organism-based; conditions: read-out: PPB
[19] = Clearance in Han Wistar rat at 1 mg/kg, iv by LC-MS/MS analysis; format: ADME, organism-based; conditions: in vivo
DOHH-2 [20] = assay: Anticancer activity against human DOHH-2 cells assessed as tumor growth inhibition at 30 mg/kg, po qd measured after 21 days; format: functional; conditions: DOHH-2, 504 h, time 21 day, read-out: TGI
[21] = Permeability of the compound across artificial membrane by AMP assay; format: ADME; conditions: PAMPA; read-out: permeability
[22] = Plasma protein binding in CD1 mouse at 5.1 mg/kg, po by LC-MS/MS analysis; format: ADME, organism-based; conditions: read-out: PPB
DOHH-2 [23] = assay: Anticancer activity against human DOHH-2 cells assessed as reduction in MYC mRNA expression in tumor at 30 mg/kg, po qd measured after 28 days by qRT-PCR analysis; format: functional, organism-based; conditions: time 28.0 day

Q: Which clearance [1] does the source give for `CCNC(=O)c1cc(OC)c2c(c1)nc(-c1ccc(N3[C@@H](C)CC[C@@H]3C)nc1)n2C[C@@H]1CN(C)CCO1` here?
A: The clearance was 26 mL/min/kg.

Q: What about the Vd [2] of the same molecule?
A: Its Vd is 2.6 L/kg.

Q: What about the bioavailability [3] of the same molecule?
A: Its bioavailability is 35%.

Q: What about the clearance [4] of the same molecule?
A: Its clearance is 25 mL/min/kg.

Q: What about the inhibition in vivo at 30 mg/kg (DOHH-2 [5]) of the same molecule?
A: The inhibition in vivo at 30 mg/kg was 82%.

Q: And the Vd [6]?
A: Its Vd is 3.4 L/kg.

Q: What about the EC50 [7] of the same molecule?
A: The EC50 was 79.4 nM.

Q: What about the Activity (DOHH-2 [8]) of the same molecule?
A: Its Activity is “Active”.

Q: What about the inhibition in vivo at 45 mg/kg (DOHH-2 [9]) of the same molecule?
A: The inhibition in vivo at 45 mg/kg was 89%.

Q: And the bioavailability [10]?
A: Its bioavailability is 40%.

Q: What about the “growth inhibition (GI)” value (Burkitts lymphoma cell) of the same molecule?
A: Its value is “Active”.

Q: What about the half-life [11] of the same molecule?
A: The half-life was 3.6 h.

Q: And the half-life [12]?
A: Its half-life is 0.75 h.

Q: What about the Activity (Mus musculus) of the same molecule?
A: The Activity was “Non-Toxic”.

Q: And the AUC(0-inf) [13]?
A: The AUC(0-inf) was 1720 ng·h/mL.

Q: And the AUC(0-inf) [14]?
A: Its AUC(0-inf) is 669 ng·h/mL.

Q: What about the Vd [15] of the same molecule?
A: The Vd was 0.73 L/kg.

Q: What about the half-life [16] of the same molecule?
A: Its half-life is 1.9 h.

Q: What about the Activity (DOHH-2 [17]) of the same molecule?
A: The Activity was “Active”.

Q: What about the fraction unbound [18] of the same molecule?
A: Its fraction unbound is 0.09.

Q: What about the clearance [19] of the same molecule?
A: Its clearance is 22 mL/min/kg.

Q: What about the inhibition in vivo at 30 mg/kg (DOHH-2 [20]) of the same molecule?
A: The inhibition in vivo at 30 mg/kg was 58%.

Q: And the Papp [21]?
A: The Papp was 20.5 ×10⁻⁶ cm/s.

Q: And the fraction unbound [22]?
A: Its fraction unbound is 0.01.

Q: And the Activity (DOHH-2 [23])?
A: The Activity was “Active”.
